Data on six molecules can be found in PubChem BioAssay AID1259407 (Chemical Carcinogenesis Research Information System (CCRIS), 2018).

Structures are written as SMILES. The source made the active and inactive calls. The rule behind the calls is not given here.

The subject of the data set is CCRIS mutagenicity, Ames/micronucleus/aberration tests. Briefly: CCRIS mutagenicity studies.
Where [1] appears, read: Test System: AMES SALMONELLA TYPHIMURIUM, Strain/Indicator: TA98, Metabolic Activation: NONE, Method: PREINCUBATION
[2] abbreviates: Test System: AMES SALMONELLA TYPHIMURIUM, Strain/Indicator: TA98, Metabolic Activation: NONE, Method: STANDARD PLATE.
The mark [3] stands for this setting: Test System: AMES SALMONELLA TYPHIMURIUM, Strain/Indicator: TA100, Metabolic Activation: NONE, Method: PREINCUBATION
[4] abbreviates: Test System: AMES SALMONELLA TYPHIMURIUM, Strain/Indicator: TA100, Metabolic Activation: NONE, Method: STANDARD PLATE.

`Cl/C=C/C[N+]12CN3CN(CN(C3)C1)C2`: the mutagenic call is “inactive; negative” (Test System: AMES SALMONELLA TYPHIMURIUM, Strain/Indicator: TA97, Metabolic Activation: HAMSTER, LIVER, S-9, AROCLOR 1254 (5, 10 OR 30%), Method: PREINCUBATION); “inactive; negative” (Test System: AMES SALMONELLA TYPHIMURIUM, Strain/Indicator: TA97, Metabolic Activation: NONE, Method: PREINCUBATION); “inactive; negative” (Test System: AMES SALMONELLA TYPHIMURIUM, Strain/Indicator: TA97, Metabolic Activation: RAT, LIVER, S-9, AROCLOR 1254 (5, 10 OR 30%), Method: PREINCUBATION); “inactive; negative” (Test System: AMES SALMONELLA TYPHIMURIUM, Strain/Indicator: TA98, Metabolic Activation: HAMSTER, LIVER, S-9, AROCLOR 1254 (5 OR 30%), Method: PREINCUBATION); “inactive; negative” (Test System: AMES SALMONELLA TYPHIMURIUM, Strain/Indicator: TA98, Metabolic Activation: HAMSTER, LIVER, S-9, AROCLOR 1254 (10%), Method: PREINCUBATION); “inactive; negative” (Test System: AMES SALMONELLA TYPHIMURIUM, Strain/Indicator: TA98, Metabolic Activation: HAMSTER, LIVER, S-9, AROCLOR 1254, Method: STANDARD PLATE). The mutagenic call was “active; positive” under setting [1]; “inactive; negative” under setting [2]; “inactive; negative” (Test System: AMES SALMONELLA TYPHIMURIUM, Strain/Indicator: TA98, Metabolic Activation: RAT, LIVER, S-9, AROCLOR 1254 (5 OR 30%), Method: PREINCUBATION); “inactive; negative” (Test System: AMES SALMONELLA TYPHIMURIUM, Strain/Indicator: TA98, Metabolic Activation: RAT, LIVER, S-9, AROCLOR 1254 (10%), Method: PREINCUBATION); “inactive; negative” (Test System: AMES SALMONELLA TYPHIMURIUM, Strain/Indicator: TA98, Metabolic Activation: RAT, LIVER, S-9, AROCLOR 1254, Method: STANDARD PLATE); “inactive; negative” (Test System: AMES SALMONELLA TYPHIMURIUM, Strain/Indicator: TA100, Metabolic Activation: HAMSTER, LIVER, S-9, AROCLOR 1254 (5 OR 30%), Method: PREINCUBATION). The mutagenic call by setting is: (Test System: AMES SALMONELLA TYPHIMURIUM, Strain/Indicator: TA100, Metabolic Activation: HAMSTER, LIVER, S-9, AROCLOR 1254 (10%), Method: PREINCUBATION) “inactive; negative”; (Test System: AMES SALMONELLA TYPHIMURIUM, Strain/Indicator: TA100, Metabolic Activation: HAMSTER, LIVER, S-9, AROCLOR 1254, Method: STANDARD PLATE) “inactive; negative”; under setting [3], “inactive; negative”; under setting [4], “inactive; negative”; (Test System: AMES SALMONELLA TYPHIMURIUM, Strain/Indicator: TA100, Metabolic Activation: RAT, LIVER, S-9, AROCLOR 1254 (5 OR 30%), Method: PREINCUBATION) “inactive; negative”; (Test System: AMES SALMONELLA TYPHIMURIUM, Strain/Indicator: TA100, Metabolic Activation: RAT, LIVER, S-9, AROCLOR 1254 (10%), Method: PREINCUBATION) “inactive; negative”. Further, the mutagenic call was “inactive; negative” (Test System: AMES SALMONELLA TYPHIMURIUM, Strain/Indicator: TA100, Metabolic Activation: RAT, LIVER, S-9, AROCLOR 1254, Method: STANDARD PLATE); “inactive; negative” (Test System: AMES SALMONELLA TYPHIMURIUM, Strain/Indicator: TA1535, Metabolic Activation: HAMSTER, LIVER, S-9, AROCLOR 1254 (10%), Method: PREINCUBATION); “inactive; negative” (Test System: AMES SALMONELLA TYPHIMURIUM, Strain/Indicator: TA1535, Metabolic Activation: HAMSTER, LIVER, S-9, AROCLOR 1254, Method: STANDARD PLATE); “inactive; negative” (Test System: AMES SALMONELLA TYPHIMURIUM, Strain/Indicator: TA1535, Metabolic Activation: NONE, Method: PREINCUBATION); “inactive; negative” (Test System: AMES SALMONELLA TYPHIMURIUM, Strain/Indicator: TA1535, Metabolic Activation: NONE, Method: STANDARD PLATE); “inactive; negative” (Test System: AMES SALMONELLA TYPHIMURIUM, Strain/Indicator: TA1535, Metabolic Activation: RAT, LIVER, S-9, AROCLOR 1254 (10%), Method: PREINCUBATION). Besides, the mutagenic call was “inactive; negative” (Test System: AMES SALMONELLA TYPHIMURIUM, Strain/Indicator: TA1535, Metabolic Activation: RAT, LIVER, S-9, AROCLOR 1254, Method: STANDARD PLATE); “inactive; negative” (Test System: AMES SALMONELLA TYPHIMURIUM, Strain/Indicator: TA1537, Metabolic Activation: HAMSTER, LIVER, S-9, AROCLOR 1254 (5, 10 OR 30%), Method: PREINCUBATION); “inactive; negative” (Test System: AMES SALMONELLA TYPHIMURIUM, Strain/Indicator: TA1537, Metabolic Activation: HAMSTER, LIVER, S-9, AROCLOR 1254, Method: STANDARD PLATE); “inactive; negative” (Test System: AMES SALMONELLA TYPHIMURIUM, Strain/Indicator: TA1537, Metabolic Activation: NONE, Method: STANDARD PLATE); “inactive; negative” (Test System: AMES SALMONELLA TYPHIMURIUM, Strain/Indicator: TA1537, Metabolic Activation: RAT, LIVER, S-9, AROCLOR 1254 (5, 10 OR 30%), Method: PREINCUBATION); “inactive; negative” (Test System: AMES SALMONELLA TYPHIMURIUM, Strain/Indicator: TA1537, Metabolic Activation: RAT, LIVER, S-9, AROCLOR 1254, Method: STANDARD PLATE). The mutagenic call was “inactive; negative” (Test System: AMES SALMONELLA TYPHIMURIUM, Strain/Indicator: TA1538, Metabolic Activation: HAMSTER, LIVER, S-9, AROCLOR 1254, Method: STANDARD PLATE); “inactive; negative” (Test System: AMES SALMONELLA TYPHIMURIUM, Strain/Indicator: TA1538, Metabolic Activation: NONE, Method: STANDARD PLATE); “inactive; negative” (Test System: AMES SALMONELLA TYPHIMURIUM, Strain/Indicator: TA1538, Metabolic Activation: RAT, LIVER, S-9, AROCLOR 1254, Method: STANDARD PLATE); “active; positive. reevaluation of results: positive” (Test System: MOUSE LYMPHOMA, Strain/Indicator: L5178Y (TK+/TK-), Metabolic Activation: NONE, Method: SUSPENSION/PLATE); “active; positive. reevaluation of results: positive” (Test System: MOUSE LYMPHOMA, Strain/Indicator: L5178Y (TK+/TK-), Metabolic Activation: RAT, LIVER, S-9, AROCLOR 1254, Method: SUSPENSION/PLATE).

With `O=C1CCCCC1=O`, the mutagenic call under setting [4] is “active; positive”.

Consider `CC(C)c1cccc(C(C)C)c1O`, for which, under “End Point: IN VIVO CHROMOSOMAL ABERRATIONS, Test System: PERIPHERAL BLOOD LYMPHOCYTES, Species: HUMAN, Strain/Sex: MALE, FEMALE, Route: IV”, the mutagenic call is “inactive; negative”.

`Fc1cc(F)c2ncccc2c1F`: the mutagenic call (Test System: AMES SALMONELLA TYPHIMURIUM, Strain/Indicator: TA100, Metabolic Activation: RAT LIVER S-9, PHENOBARBITAL AND 5,6-BENZOFLAVONE, Method: PREINCUBATION) is “active; positive”.

For the molecule `CNC(=O)N(C)C(=O)ON`, the mutagenic call is “active; positive” under setting [2] and “active; positive” under setting [4].

Regarding `NNc1ccccc1[N+](=O)[O-]`, the mutagenic call under setting [1] is “active; positive”; the mutagenic call (Test System: AMES SALMONELLA TYPHIMURIUM, Strain/Indicator: TA98, Metabolic Activation: RAT, LIVER, S-9, KANECHLOR 500, Method: PREINCUBATION) was “active; positive”; the mutagenic call under setting [3] is “active; positive”.
